Reference: US20110229438A1, “METHOD OF INHIBITING HEPATITUS C VIRUS BY COMBINATION OF A 5,6-DIHYDRO-1H-PYRIDIN-2-ONE AND ONE OR MORE ADDITIONAL ANTIVIRAL COMPOUNDS” (priority 2008, published 2011)
Read-outs that look alike come from different tables or passages of the source.

Test system: HCV Huh-luc/neo-ET cells (HCV replicon)
Assay: Luciferase-based HCV replicon assay, single agents and combinations
Format: cell-based, hepatitis C virus
Details: for increase of potency in the presence of Compound 2: Compound 2 at concentrations readily achieved clinically, FIGS. 2b, 3b, Table 2
Protocol: The cell culture component of the assay is performed essentially as described by Bartenschlager et al., Hepatology, 2002, 35, 694-703, wherein exponentially growing HCV Huh-luc/neo-ET cells are seeded at 6×10^3 cells/well in 96 well assay plate. 24 hours later the cells are treated with various concentrations of compound or combination of compounds in triplicate using both fixed ratios and checkerboard matrices of test agents and cultured for 72 hours. The luciferase activity in the wells is determined using Bright-Glo reagent (Promega, Madison, Wis.) with a luminometer (Wallac 1420 Multilabel HTS Counter Victor 2). The background control is replicon cells treated with 100 nM BILN-2061, an inhibitor of the HCV protease. % Inhibition is determined for each compound concentration or combination of compounds in relation to the negative (no compound) control to calculate the EC50. In the case of ANA773, conditioned media from human PBMCs from multiple donors is pooled after treatment with 100 μM of the active of ANA773 for 24 hours.
Compound 2 was evaluated in combination with Interferon α-2a, Telaprevir (HCV NS3/4 protease inhibitor, also known as VX-950), PSI-6130 the active agent of R7128 (HCV NS5B nucleoside inhibitor), and ANA773 (TLR7 agonist). The 50% inhibitory concentration (EC50) of each compound or combination of compounds is determined independently to determine the range of concentrations used to characterize the interaction of two agents in inhibiting the HCV replicon. […] The ratio of the two compounds tested either remained fixed or is varied across the dosing range to explore the greatest combination surface.
The combination data is analyzed using CalcuSyn (Biosoft, Ferguson, Mo.), a computer program based on the method of Chou and Talalay, J. Biol. Chem., 1977, 252, 6438-6442. Combination index (CI) values for each experimental combination are calculated at the EC50, EC75 and EC90 levels. CI values of <1, 1, and >1 indicate synergy, an additive effect, and antagonism, respectively.

Structure (SMILES) | increase of potency in the presence of Compound 2 | EC90 (Hepatitis C virus, Huh-luc/neo-ET, Compound 2 at 0 ng/mL (agent alone)) [nM] | EC90 (Hepatitis C virus, Huh-luc/neo-ET, in presence of fixed Compound 2 at 6 ng/mL) [nM] | EC90 (Hepatitis C virus, Huh-luc/neo-ET, in presence of fixed Compound 2 at 17 ng/mL) [nM] | EC90 (Hepatitis C virus, Huh-luc/neo-ET, in presence of fixed Compound 2 at 170 ng/mL) [nM] | EC90 (Compound 2 at 0 ng/mL (agent alone), read-out: EC90) [nM] | EC90 (in presence of fixed Compound 2 at 6 ng/mL, read-out: EC90) [nM] | EC90 (in presence of fixed Compound 2 at 17 ng/mL, read-out: EC90) [nM]
CCC[C@H](NC(=O)[C@@H]1[C@H]2CCC[C@H]2CN1C(=O)[C@@H](NC(=O)[C@@H](NC(=O)c1cnccn1)C1CCCCC1)C(C)(C)C)C(=O)C(=O)NC1CC1 [Telaprevir] | 2-3 fold | 2800 | 2400 | 1900 | 1300 |  |  | 
C[C@@]1(F)[C@H](O)[C@@H](CO)O[C@H]1n1ccc(N)nc1=O [PSI-6130] | 4-5 fold |  |  |  |  | 11600 | 6000 | 2400
